This passage reports EC50 results from BindingDB's records for doi:10.1021/acsmedchemlett.9b00286 (Bristol Myers Squibb, 2019).

pEC50: −log10 of the molar value.

A short description of the assay: Inhibition of NS5A in HCV genotype 1b assessed as decrease in viral replication.

As a reminder, the pEC50 is the EC50 on a negative log10 scale, so that one unit is a factor of ten. Take `COC(=O)N[C@H](C(=O)N1CCC[C@H]1c1nc(-c2ccc(-c3ccc(-c4c[nH]c([C@@H]5CCCN5C(=O)[C@@H](NC(=O)OC)C(C)C)n4)cc3)cc2)c[nH]1)C(C)C` [BMS-790052]: the pEC50 was 11.40.
